From ChEMBL document CHEMBL3621100, “Discovery of Novel Class I Histone Deacetylase Inhibitors with Promising in Vitro and in Vivo Antitumor Activities” (J Med Chem, 2015)
Blank lines part the entries; values can stand above or below the compound they belong to.

Tests used:
[1] = biological target: Histone deacetylase 9 (Homo sapiens, UniProt Q9UKV0); assay: Inhibition of recombinant human HDAC9 after 60 mins by fluorescence assay
[2] = biological target: Histone deacetylase 2 (Homo sapiens, UniProt Q92769); assay: Inhibition of recombinant human HDAC2 after 60 mins by fluorescence assay
Chain of Histone deacetylase 2 (Q92769 whole entry): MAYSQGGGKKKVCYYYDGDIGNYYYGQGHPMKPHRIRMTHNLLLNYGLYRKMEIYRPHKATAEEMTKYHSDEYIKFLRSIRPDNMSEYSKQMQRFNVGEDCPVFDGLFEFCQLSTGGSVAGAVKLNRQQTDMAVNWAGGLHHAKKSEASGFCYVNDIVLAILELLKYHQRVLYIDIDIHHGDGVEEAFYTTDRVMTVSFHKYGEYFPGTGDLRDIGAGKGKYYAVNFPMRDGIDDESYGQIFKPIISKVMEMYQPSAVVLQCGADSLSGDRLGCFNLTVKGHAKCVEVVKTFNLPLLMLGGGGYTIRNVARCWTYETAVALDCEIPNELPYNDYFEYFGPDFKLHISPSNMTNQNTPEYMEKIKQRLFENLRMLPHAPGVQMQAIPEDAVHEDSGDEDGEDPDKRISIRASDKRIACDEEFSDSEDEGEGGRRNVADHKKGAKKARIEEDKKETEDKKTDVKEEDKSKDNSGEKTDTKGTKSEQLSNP

[3] = biological target: Histone deacetylase 1 (Homo sapiens, UniProt Q13547); assay: Inhibition of recombinant human HDAC1 after 60 mins by fluorescence assay
Chain of Histone deacetylase 1 (Q13547 whole entry): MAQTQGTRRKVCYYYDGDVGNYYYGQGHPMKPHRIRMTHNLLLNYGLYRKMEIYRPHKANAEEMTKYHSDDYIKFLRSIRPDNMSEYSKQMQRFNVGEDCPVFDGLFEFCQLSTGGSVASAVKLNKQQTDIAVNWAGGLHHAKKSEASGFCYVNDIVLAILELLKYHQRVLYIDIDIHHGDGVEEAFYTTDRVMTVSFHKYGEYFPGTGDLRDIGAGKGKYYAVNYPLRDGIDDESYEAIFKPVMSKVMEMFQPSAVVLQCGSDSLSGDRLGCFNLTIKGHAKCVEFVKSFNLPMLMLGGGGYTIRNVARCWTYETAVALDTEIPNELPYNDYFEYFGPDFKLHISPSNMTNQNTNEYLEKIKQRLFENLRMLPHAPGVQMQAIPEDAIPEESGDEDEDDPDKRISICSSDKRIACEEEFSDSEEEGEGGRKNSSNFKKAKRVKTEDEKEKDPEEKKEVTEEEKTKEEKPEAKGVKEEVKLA

[4] = biological target: T1, Protein deacetylase HDAC6 (Homo sapiens, UniProt Q9UBN7); assay: Inhibition of recombinant human HDAC6 after 60 mins by fluorescence assay
T1 sequence (Q9UBN7 whole entry): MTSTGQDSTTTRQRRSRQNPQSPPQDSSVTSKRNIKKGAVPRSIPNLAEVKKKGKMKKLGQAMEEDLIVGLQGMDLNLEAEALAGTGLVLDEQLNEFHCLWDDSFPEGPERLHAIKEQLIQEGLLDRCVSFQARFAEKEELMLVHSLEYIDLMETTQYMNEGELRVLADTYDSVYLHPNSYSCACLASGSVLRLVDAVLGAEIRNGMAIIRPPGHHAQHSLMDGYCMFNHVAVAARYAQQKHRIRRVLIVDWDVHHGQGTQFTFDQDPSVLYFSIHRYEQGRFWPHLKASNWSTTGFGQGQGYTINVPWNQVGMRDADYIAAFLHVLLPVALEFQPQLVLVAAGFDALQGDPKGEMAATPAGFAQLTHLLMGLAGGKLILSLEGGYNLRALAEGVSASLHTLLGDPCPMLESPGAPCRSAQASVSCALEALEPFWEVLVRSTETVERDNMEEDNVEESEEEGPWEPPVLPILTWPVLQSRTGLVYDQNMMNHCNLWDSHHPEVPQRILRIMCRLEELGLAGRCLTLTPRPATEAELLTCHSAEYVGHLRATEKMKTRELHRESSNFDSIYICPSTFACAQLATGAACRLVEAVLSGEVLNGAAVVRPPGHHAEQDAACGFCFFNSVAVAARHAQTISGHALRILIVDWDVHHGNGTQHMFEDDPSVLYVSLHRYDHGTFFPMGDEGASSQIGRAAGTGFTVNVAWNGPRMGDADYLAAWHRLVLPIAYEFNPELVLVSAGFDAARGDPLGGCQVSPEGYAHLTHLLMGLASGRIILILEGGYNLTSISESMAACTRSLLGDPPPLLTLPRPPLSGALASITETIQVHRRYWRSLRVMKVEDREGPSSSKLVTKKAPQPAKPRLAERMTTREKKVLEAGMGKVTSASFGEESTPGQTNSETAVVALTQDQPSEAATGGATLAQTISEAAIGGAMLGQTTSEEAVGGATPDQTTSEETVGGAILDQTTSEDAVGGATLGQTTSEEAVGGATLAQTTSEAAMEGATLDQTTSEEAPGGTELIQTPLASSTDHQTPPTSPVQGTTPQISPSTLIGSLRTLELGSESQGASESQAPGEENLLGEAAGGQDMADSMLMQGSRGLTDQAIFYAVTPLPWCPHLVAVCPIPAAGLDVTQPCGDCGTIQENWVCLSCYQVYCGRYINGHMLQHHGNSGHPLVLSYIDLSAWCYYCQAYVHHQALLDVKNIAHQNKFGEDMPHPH

[5] = system: DU-145; assay: Antitumor activity against human DU145 cells xenografted in BALB/c mouse assessed as delay in tumor growth at 20 mg/kg, iv administered for 5 times a week for after 4 weeks; assay type: functional
[6] = system: Mus musculus; assay: Toxicity in human DU145 cells xenografted BALB/c mouse assessed as change in body weight at 20 to 80 mg/kg, iv administered for 5 times a week for after 4 weeks; assay type: organism-based, DU-145; settings: in vivo, 672 h
[7] = Aqueous solubility of the compound; assay type: physicochemical; settings: buffer
[8] = system: DU-145; assay: Antitumor activity against human DU145 cells xenografted in BALB/c mouse assessed as delay in tumor growth at 40 mg/kg, iv administered for 5 times a week for after 4 weeks; assay type: functional
[9] = system: Mus musculus; assay: Toxicity in human DU145 cells xenografted BALB/c mouse assessed as mortality at 20 to 80 mg/kg, iv administered for 5 times a week for after 4 weeks; assay type: organism-based, DU-145; settings: in vivo, 672 h
[10] = in vitro; settings: human, DU145 cells and HLF cells
Description: Selectivity ratio of GI50 for human DU145 cells to GI50 for human HLF cells

[11] = system: DU-145; assay: Antitumor activity against human DU145 cells xenografted in BALB/c mouse assessed as tumor growth inhibition at 20 mg/kg, iv administered for 5 times a week for after 4 weeks; assay type: functional; settings: DU-145, iv, 672 h, read-out: GI
[12] = system: U-937; assay: Antiproliferative activity against human U937 cells after 72 hrs by CCK8 assay; assay type: functional; settings: Homo sapiens, U-937, 72 h
[13] = system: DU-145; assay: Antitumor activity against human DU145 cells xenografted in BALB/c mouse assessed as delay in tumor growth at 80 mg/kg, iv administered for 5 times a week for after 4 weeks; assay type: functional
[14] = Antiproliferative activity against human HLF cells after 72 hrs by CCK8 assay; assay type: cell-based
[15] = system: DU-145; assay: Antitumor activity against human DU145 cells xenografted in iv dosed BALB/c mouse assessed as delay in tumor growth after 4 weeks; assay type: functional, organism-based
[16] = system: DU-145; assay: Fold increase in DU145 over HLF selectivity (GI50 ratio) relative to largazole after 72 hrs by CCK8 assay
[17] = system: DU-145; assay: Fold increase in DU145 over HLF selectivity (GI50 ratio) relative to FK228 after 72 hrs by CCK8 assay

Chain of Histone deacetylase 9 (Q9UKV0 whole entry): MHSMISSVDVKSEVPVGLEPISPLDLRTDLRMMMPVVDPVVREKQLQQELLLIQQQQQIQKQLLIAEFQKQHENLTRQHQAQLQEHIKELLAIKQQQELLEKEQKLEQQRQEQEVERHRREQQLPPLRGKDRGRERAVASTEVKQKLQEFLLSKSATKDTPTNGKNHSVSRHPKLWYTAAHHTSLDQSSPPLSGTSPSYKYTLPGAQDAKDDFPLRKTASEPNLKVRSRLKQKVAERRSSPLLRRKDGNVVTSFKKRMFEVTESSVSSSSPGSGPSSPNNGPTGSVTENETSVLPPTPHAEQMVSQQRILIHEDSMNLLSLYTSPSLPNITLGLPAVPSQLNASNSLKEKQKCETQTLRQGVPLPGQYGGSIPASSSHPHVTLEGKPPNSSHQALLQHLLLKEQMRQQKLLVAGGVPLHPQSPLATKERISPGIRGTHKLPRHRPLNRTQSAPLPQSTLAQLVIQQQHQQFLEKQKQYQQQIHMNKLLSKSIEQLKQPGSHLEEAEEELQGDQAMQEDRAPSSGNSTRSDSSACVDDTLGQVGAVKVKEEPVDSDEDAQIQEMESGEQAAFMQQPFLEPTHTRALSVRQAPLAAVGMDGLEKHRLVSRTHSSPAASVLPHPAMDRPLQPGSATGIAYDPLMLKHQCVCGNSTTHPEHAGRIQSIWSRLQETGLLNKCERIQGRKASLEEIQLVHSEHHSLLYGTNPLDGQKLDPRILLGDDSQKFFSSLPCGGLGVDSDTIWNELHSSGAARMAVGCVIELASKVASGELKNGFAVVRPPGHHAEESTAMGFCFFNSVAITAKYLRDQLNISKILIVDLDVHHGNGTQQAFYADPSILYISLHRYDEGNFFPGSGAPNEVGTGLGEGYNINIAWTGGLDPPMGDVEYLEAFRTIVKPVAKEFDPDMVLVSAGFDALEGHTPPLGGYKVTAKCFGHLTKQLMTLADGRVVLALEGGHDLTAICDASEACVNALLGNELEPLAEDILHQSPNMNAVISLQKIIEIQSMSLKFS

SMILES: C/C=C1\NC(=O)c2csc(n2)CNC(=O)C[C@@H](/C=C/CCSC(C)=O)OC(=O)[C@H](C(C)C)NC1=O
Activity [5]: 51.7% | IC50 [1]: > 10000 nM | Activity [6]: Non-toxic | solubility [7]: soluble | Activity [8]: 75.2% | Activity [9]: Non-toxic | IC50 [2]: 328 nM | IC50 [3]: 21.6 nM | selectivity ratio [10]: 0.034 | inhibition in vivo at 20 mg/kg [11]: 51.7% | GI50 [12]: 10.5 nM | Activity [13]: 81.2% | GI50 at 72 h [14]: 321 nM | IC50 [4]: 4630 nM | Activity [15]: Dose-dependent effect

SMILES: C/C=C1\NC(=O)c2csc(n2)CNC(=O)C[C@@H](/C=C/CCSC(=O)CCCCCCC)OC(=O)[C@H](C(C)C)NC1=O
IC50 [1]: > 10000 nM | IC50 [2]: 2710 nM | IC50 [3]: 158 nM | Ratio [16]: 20 | selectivity ratio [10]: 0.022 | GI50 [12]: 6.59 nM | GI50 at 72 h [14]: 312 nM | IC50 [4]: 6950 nM | Ratio [17]: 22

SMILES: C/C=C1\NC(=O)c2csc(n2)[C@@H](C(C)C)NC(=O)C[C@@H](/C=C/CCSC(=O)CCCCCCC)OC(=O)[C@H](C(C)C)NC1=O
IC50 [1]: > 10000 nM | IC50 [2]: 2740 nM | IC50 [3]: 165 nM | selectivity ratio [10]: 0.029 | GI50 [12]: 31.7 nM | GI50 at 72 h [14]: 710 nM | IC50 [4]: > 10000 nM | Ratio [17]: 8

Further lines, results first:

IC50 [1]: > 10000 nM | IC50 [2]: 36.6 nM | IC50 [3]: 2.18 nM | IC50 [4]: 459 nM
SMILES: C/C=C1\NC(=O)c2csc(n2)[C@@H](C(C)C)NC(=O)C[C@@H](/C=C/CCS)OC(=O)[C@H](C(C)C)NC1=O

IC50 [1]: > 10000 nM | IC50 [2]: 45 nM | IC50 [3]: 2.78 nM | IC50 [4]: 331 nM
SMILES: C/C=C1\NC(=O)c2csc(n2)CNC(=O)C[C@@H](/C=C/CCS)OC(=O)[C@H](C(C)C)NC1=O
